Experimental data taken from paper PMC10166890, “Screening for DAX1/EWS‐FLI1 functional inhibitors identified dihydroorotate dehydrogenase as a therapeutic target for Ewing's sarcoma” (Cancer Medicine, 2023).
pIC50: −log10 of the molar value. “Also recorded” adds a separate entry of the source.

How the values were obtained:
A‐673 cells = test: Cell viability assay (XTT), A‐673 cells; format: cell-based, human
Procedure: (§1) AsPC‐1, A‐673, and TC‐71 cells were seeded in 96‐well plates (800 cells/well for AsPC‐1, 2000 cells/well for A‐673, and 400 cells/well for TC‐71) and cultured overnight. Vehicle (DMSO) or a test compound diluted with the medium was then added to the wells (final DMSO concentration was 0.3%), and 72 h later, 2,3‐bis[2‐methoxy‐4‐nitro‐5‐sulfophenynl]‐2H‐tetrazolium‐5‐carboxanilide inner salt (XTT) reagent (Roche Diagnostics, Mannheim, Germany) was added to the medium. After 3‐h incubation at 37°C, the formation of the formazan dye was determined by measuring absorbance at 490 and 650 nm using a SpectraMax 340PC system (Molecular Devices, Sunnyvale, CA, USA).

TC‐71 cells = test: Cell viability assay (XTT), TC‐71 cells; format: cell-based, human; details: 72 h
Procedure: as §1

DHODH [1] = target: T1, DHODH (Homo sapiens, UniProt Q02127); test: DHODH inhibition assay, A‐673 mitochondria fraction (orotic acid production, LCMSMS); format: biochemical; details: read-out: IC50 for orotic acid production through DHODH
T1 construct: The mitochondria fraction was isolated from A‐673 cells using Q proteome Mitochondria Isolation kit; endogenous in cells; host or cells: A-673 cells, mitochondria fraction
T1 sequence (Q02127 whole entry): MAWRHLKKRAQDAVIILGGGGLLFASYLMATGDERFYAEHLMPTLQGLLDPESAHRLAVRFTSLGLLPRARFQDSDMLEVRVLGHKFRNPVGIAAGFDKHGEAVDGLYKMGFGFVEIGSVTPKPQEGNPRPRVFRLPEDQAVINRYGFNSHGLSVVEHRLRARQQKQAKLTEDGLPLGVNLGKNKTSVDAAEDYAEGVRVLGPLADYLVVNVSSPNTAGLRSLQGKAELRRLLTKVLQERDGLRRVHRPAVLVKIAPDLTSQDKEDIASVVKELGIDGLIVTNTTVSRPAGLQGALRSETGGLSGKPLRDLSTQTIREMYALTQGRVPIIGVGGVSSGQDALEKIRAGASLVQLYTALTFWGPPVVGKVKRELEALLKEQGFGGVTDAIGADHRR
Procedure: The mitochondria fraction was isolated from A‐673 cells using Q proteome Mitochondria Isolation kit (QIAGEN, Hilden, Germany). The protein concentration of the fraction was determined using the DC‐protein assay kit (Bio‐Rad Laboratories, Hercules, CA, USA) with bovine serum albumin (Sigma‐Aldrich) as the standard. […] The reaction was quenched by adding 120 μL of 3 μM 5‐fluoroorotic acid acetonitrile solution. These samples were then centrifuged at 5000 g for 5 min to precipitate proteins, and the supernatant was collected. The samples were diluted 10‐fold with 70% acetonitrile‐water and subjected to liquid chromatography with tandem mass spectrometry (LCMSMS). The analyte was then separated on a hydrophilic interaction chromatography column (PC‐HILIC; 5 μm, 4.6 mm I.D. × 50 mm; Osaka Soda, Osaka, Japan). LCMSMS detection was performed by electrospray ionization in negative ion mode.

DHODH [2] = target: T2, DHODH (Mus musculus, UniProt O35435); test: DHODH inhibition with mouse liver mitochondria; format: biochemical
T2 construct: IC50 value for the mouse liver mitochondrial fraction; from tissue; host or cells: mouse liver mitochondria
T2 sequence (O35435 whole entry): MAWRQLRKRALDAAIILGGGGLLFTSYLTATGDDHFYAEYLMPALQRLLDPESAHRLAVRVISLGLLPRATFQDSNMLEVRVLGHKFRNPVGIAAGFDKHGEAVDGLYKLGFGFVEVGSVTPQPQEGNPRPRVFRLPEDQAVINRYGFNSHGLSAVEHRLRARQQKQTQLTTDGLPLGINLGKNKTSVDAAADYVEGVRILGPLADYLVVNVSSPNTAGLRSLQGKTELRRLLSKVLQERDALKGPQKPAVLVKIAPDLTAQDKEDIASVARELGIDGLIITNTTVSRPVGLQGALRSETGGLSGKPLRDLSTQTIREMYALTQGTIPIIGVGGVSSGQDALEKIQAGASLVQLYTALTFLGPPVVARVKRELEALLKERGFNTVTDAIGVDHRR

[3] = tested on: A‐673 cell‐derived tumors; test: A‐673 xenograft in SCID mice; format: in vivo, mouse
Procedure: (§2) All animal studies were performed in accordance with Standards for Proper Conduct sof Animal Experiments at Kyowa Kirin Co., Ltd., under the approval of the company's Institutional Animal Care and Use Committee. Male C.B17/Icr‐scid/scidJcl (SCID) mice (5 weeks old) were purchased from CREA Japan (Tokyo, Japan). K‐733 was suspended in 0.5% (w/v) methylcellulose 400 (MC400; FUJIFILM Wako Pure Chemical) and orally administered to mice once daily. Ewing's cells were suspended in Dulbecco's phosphate‐buffered saline (DPBS; Thermo Fisher Scientific, Waltham, MA, USA) and injected subcutaneously into the ventral side of mice at 5 × 10^6 cells/0.1 mL/mouse for A‐673 and TC‐71 and 1 × 10^7 cells/0.1 mL/mouse for CADO‐ES1 and SK‐ES‐1. In experiments using TC‐71 cells, 0.3 mg of anti‐asialo GM1 antibody (FUJIFILM Wako Pure Chemical) was injected intraperitoneally 1 day before TC‐71 injection. The tumor size and body weight were measured every 3 or 4 days. The tumor volume was calculated using the following equation: Tumor volumemm^3=DL×DS×DS×1/2, where DL and DS represent the long diameter and short diameter, respectively. The pharmacokinetic analysis of K‐733 is described in Materials and Methods S2.

TC‐71‐derived tumors = test: TC‐71 xenograft in SCID mice; format: in vivo, mouse; details: 10, 30, or 100 mg/kg orally once daily; less sensitive than others
Procedure: as §2

CADO‐ES1 = CADO‐ES1 xenograft in SCID mice; format: in vivo, mouse; details: 10, 30, or 100 mg/kg orally once daily
Procedure: as §2

[4] = Plasma concentration‐time profile after single oral administration; format: in vivo, mouse; details: BALB/c mice
Procedure: First, we evaluated the plasma concentration‐time profile of K‐733 after single oral administration at dose ranges from 1 to 100 mg/kg in BALB/c mice (donors of SCID mice) for dose selection (Figure 8A). […] Therefore, we selected dose ranges from 10 to 100 mg/kg for in vivo studies.
Male BALB/cAnNCrlCrlj mice (6 weeks old) were purchased from Jackson Laboratories Japan (Yokohama, Japan). K-733, suspended in 0.5% (w/v) MC400 was orally administered at 1, 3, 10, and 100 mg/kg (n=2), and blood samples were collected from the tail vein at 0.5, 1, 2, 4, 7 and 24 h after administration. Mice were euthanized with carbon dioxide inhalation after the final blood sampling. Plasma was separated and stored frozen until use. The plasma concentration of K-733 was determined by liquid chromatography with tandem mass spectrometry (LC-MS). Plasma samples were pre-treated for protein precipitation, and the supernatant was subjected to liquid LC-MS. The analyte was separated on a C18 reverse-phase column (CAPCELL PAK C18 MG 3 μm, 3 mm I.D. × 35 mm; Osaka Soda). LC-MS detection was performed by electrospray ionization in a positive ion mode. The detected mass-to-charge ratio of K-733 was 482.95/92.75 (Q1/Q3). The lower limit of quantification (LLOQ) was 10 nM.

[5] = tested on: EWS‐FLI1 target gene expression; test: EWS‐FLI1 target gene expression in A‐673 tumors after 14‐day treatment; format: in vivo, mouse; details: after 14‐day oral treatment
Procedure: Total RNA was extracted using the RNeasy Plus Mini kit (Qiagen, Valencia, CA, USA) according to the manufacturer's protocol. cDNA was synthesized from 1 μg of total RNA using a SuperScript VILO cDNA synthesis kit (Thermo Fisher Scientific). Real‐time PCR was carried out using TaqMan Fast Universal PCR Master Mix (Thermo Fisher Scientific).
as §2
FIGURE 8 K‐733 exerts an anti‐tumor effect in mice bearing Ewing's sarcoma. (A) Plasma concentration‐time profiles of K‐733 in mice after a single oral administration of K‐733. Each plot represents the mean of duplicate measurements. (B) Antitumor effect of K‐733 on A‐673 cells. Indicated doses of K‐733 were orally administered once daily for 14 days. Each plot represents the mean of n = 5 and SE. C, Influence of K‐733 on EWS‐FLI1‐related genes. Tumors were sampled after 14 days oral administration of K‐733. Each plot represents the mean of n = 5 and SE. […]

SMILES: Cc1nc(-c2ccc(C3c4[nH]c5ccc(Cl)cc5c4CCN3C(=O)Oc3ccccc3)cc2)no1 (stereo not drawn) [K-733, phenyl 6‐chloro‐1‐(4‐(5‐methyl‐1,2,4‐oxadiazol‐3‐yl)phenyl)‐1,3,4,9‐tetrahydro‐2H‐pyrido[3,4‐b]indole‐2‐carboxylate]
- Cell viability of A‐673 cells (A‐673 cells; 72 h): decreased the viability
- GI50 (A‐673 cells; Homo sapiens, A673, 50% growth inhibition concentration, A‐673 cells): 6.11 nM
- Cell viability of TC‐71 cells (TC‐71 cells): decreased the viability
- pIC50 (DHODH [1]): 9.02
- pIC50 (DHODH [2]): 6.92
- Treatment per control ratio (T/C), greatest change ([3]; 100 mg/kg orally once daily, A‐673 tumors): 0.38
- Tumor volume, A‐673 xenograft ([3]; 10, 30, or 100 mg/kg orally once daily up to 14 days): reduced; also recorded: inhibited tumor growth
- Body weight ([3]; A‐673‐bearing mice, up to 100 mg/kg orally once daily): without a body weight loss; also recorded: without affecting body weight gain
- Tumor growth, TC‐71 xenograft (TC‐71‐derived tumors): reduced dose‐dependently
- Tumor growth, CADO‐ES1 xenograft (CADO‐ES1): reduced dose‐dependently
- Plasma concentration, dose dependence ([4]; single oral 1 to 100 mg/kg): increased dose‐dependently
- Plasma concentration relative to IC50 (DAX1 reporter and DHODH inhibition) ([4]; single oral ≥10 mg/kg): higher than the IC50 value
- DAX1 mRNA levels in tumors [5]: no marked effect
- mRNA levels of IGFBP3 and DKK1 in tumors [5]: increased
- mRNA levels of NKX2‐2 in tumors [5]: decreased
